In patent US20080090254A1, “Method for assessing proliferation inhibiting effect of inhibitor, and method for determining sensitivity of tumor cell to inhibitor” (SYSMEX CORPORATION, priority 2006, published 2008):

Assays:
[1] = system: receptor tyrosine kinase group derived from a cell membrane of MDA-MB468; assay: activity of receptor tyrosine kinase group, sample for reaction MB468 (ELISA, GST-poly(Glu, Tyr) substrate); type: biochemical; details: for effect of inhibiting the activity of a receptor tyrosine kinase group, inhibitor combined with 4557W: Example 2, FIG. 6, 400 μM inhibitor combined with 400 μM 4557W; for effect of inhibiting the activity of a receptor tyrosine kinase group, inhibitor alone: Example 2, FIG. 6, treating solution containing 400 μM inhibitor alone; for inhibition of the activity of the receptor tyrosine kinase group: Example 1, FIG. 3, treating solution containing 400 μM inhibitor, versus sample not treated = 100%
Method: (§1) From five kinds of cultured cells (MDA-MB453, MDA-MB468, SKBr3, Hela and HT29), a sample for reaction was prepared. Specifically, the cultured cell and 1 ml of a cell treating solution (containing 20 mM HEPES pH7.4, 0.2% PI, 10% glycerol, 200 μM Na3VO4, and 50 mM NaF) were mixed. By pressing using a pestle, a cell membrane of the resulting mixed solution was destructed to prepare a cell solution. The resulting cell solution was centrifuged, a supernatant was discarded, and a precipitate was recovered. The recovered precipitate and a cell membrane solubilizing solution (containing 20 mM HEPES pH7.4, 1% NP40, 0.2% PI, 10% glycerol, 200 μM Na3VO4, and 50 mM NaF) were mixed. A cell membrane in the mixed solution obtained by pressing using a pestle was solubilized, and centrifuged to recover a supernatant. This supernatant was used as a sample for reaction. MDA-MB453 is a cultured cell derived from a breast cancer, and a sample for reaction prepared from this cell is designated as sample for reaction MB453. MDA-MB468 is a cultured cell derived from a breast cancer, and a sample for reaction prepared from this cell is designated as sample for reaction MB468. SKBr3 is a cultured cell derived from a breast cancer, and a sample for reaction prepared from this cell is designated as sample for reaction SKBr3. Hela is a cultured cell derived from a uterine cervical cancer, and a sample for reaction prepared from this cell is designated sample for reaction Hela. HT29 is a cultured cell derived from a large intestine cancer, and a sample for reaction prepared from this cell is designated sample for reaction HT29.
As a plate for ELISA, a glutathione-coated plate (Reacti-Bind Clear Glutathione Coated Plates, 8-well Strip (PIERCE)) was used. First, each well of the plate was washed with TBS-T (containing 25 mM Tris, 150 mM NaCl and 0.05% Tween 20) three times. Then, into each well was placed 50 μl of the substrate solution 1 containing the GST-poly (Glu, Tyr) substrate prepared in the 1 (TBS containing 5 μg/ml GST-poly (Glu, Tyr) substrate), and this was incubated at 25° C. for 1 hour while slightly shaken. After incubation, each well was washed with TBS-T two times. Further, each well was washed with 20 mM HEPES pH7.4 (containing 0.05% Tween 20) once. Like this, the GST-poly (Glu, Tyr) substrate was bound to a surface of a well of the plate for ELISA. This plate for ELISA was used in the following enzyme reaction.
First, 25 μl of the sample for reaction MB453 was dispensed into 6 tubes, respectively. Among 6 tubes, to the first tube was added 25 μl of a treating solution containing 400 μM (20 mM HEPES pH7.4, 20 mM MnCl2, 2 mM DTT, 1% NP40, 10% glycerol, 200 μM Na3VO4, 50 mM NaF, 400 μM ATP). To the second tube was added 25 μl of a treating solution containing 400 μM AG1478. To the third tube was added 25 μl of a treating solution containing 400 μM 4557W. To the fourth tube was added 25 μl of a treating solution containing 400 μM PDGF Receptor Tyrosine Kinase Inhibitor III. To the fifth tube was added 25 μl of a treating solution containing 400 μM VEGF Receptor Tyrosine Kinase Inhibitor III. To the sixth tube was added 25 μl of a treating solution containing no inhibitor. The thus obtained solutions are used as a reaction solution. Similarly, using the sample for reaction MB468, the sample for reaction SKBr3, the sample for reaction Hela and the sample for reaction HT29, samples for reaction were prepared. In order to suppress the enzyme activity of receptor tyrosine kinase, this working was performed under the condition of not higher than 4° C.
Fifty microliter of each reaction solution was placed into separate wells of the plate for ELISA, and this was incubated at 25° C. for about 30 minutes. After incubation, 100 μl of a reaction stopping solution (TBS-T containing 1 mM EDTA) was added to each well, followed by further washing with TBS-T three times. Then, each well was washed with 300 μl of StartingBlock T20 (TBS) Blocking Buffer (PIERCE). […]

MDA-MB468 = assay: cell proliferation, CellTiter-Glo Luminescent Cell Viability Assay; type: cell-based; details: cultured 3 days
Method: (§2) Cells were seeded on each well of a plate for culturing (96 Well Solid White Flat Bottom Polystyrene TC-Treated Microplates, Corning) at 1000 cells per well, and cultured at 37° C. for 24 hours. After culturing, an inhibitor was added to each well, and cells were further cultured at 37° C. for 3 days. As cells, five kinds of cultured cells used in Example 1 (MDA-MB453, MDA-MB468, SKBr3, Hela and HT29) were used. As the inhibitor, five kinds of inhibitors used in Example 1 (PD153035, AG1478, 4557W, PDGF Receptor Tyrosine Kinase Inhibitor III and VEGF Receptor Tyrosine Kinase Inhibitor III) were used. In Table 1, the final concentration is a concentration when the inhibitor is added to a well, and is mixed with cells.
(§3) For measuring cell proliferation, CellTiter-Glo Luminescent Cell Viability Assay (Promega) was used. This is a reagent kit which can quantitate ATP derived from a cell having the metabolism activity in a medium to measure a viable cell. First, according to a protocol attached to the kit, a measurement reagent was prepared. The measurement reagent was added at 100 μl per well, and a culturing plate was stirred with a shaker for 2 minutes. After stirring, the plate was allowed to stand for 10 minutes, and […] was measured using GENios (TECAN). Since […] is generated in proportion with an amount of ATP derived from a cell having the metabolism activity in a medium, a viable cell in a medium can be measured by measuring […].
(§4) Based on the measurement result, radar charts of FIG. 4 were produced. FIG. 4 contains a radar chart in the case of use of MDA-MB453, a radar chart in the case of use of MDA-MB468, a radar chart in the case of use of SKBr3, a radar chart in the case of use of Hela, and a radar chart in the case of use of HT29. These radar charts show a proportion of a measured value obtained by treating a cell with an inhibitor, letting a measured value when a cell was not treated with an inhibitor to be 100%. In radar charts, 1 is the case where a cell was treated with PD153035, 2 is the case where a cell was treated with AG1478, 3 is the case where a cell was treated with 4557W, 4 is the case where a cell was treated with PDGF Receptor Tyrosine Kinase Inhibitor III, and 5 is the case where a cell was treated with VEGF Receptor Tyrosine Kinase Inhibitor III.

SKBr3 = assay: as above; type: cell-based; details: Comparative Example 1, FIG. 4, final concentration 1 × 10^−5 M (Table 1), cultured 3 days
Method: as §2, §3, §4

MDA-MB453 = assay: as above; type: cell-based; details: Comparative Example 1, FIG. 4, final concentration 1 × 10^−5 M (Table 1), cultured 3 days
Method: as §2, §3, §4

HT29 = assay: as above; type: cell-based; details: Comparative Example 1, FIG. 4, final concentration 1 × 10^−5 M (Table 1), cultured 3 days
Method: as §2, §3, §4

[2] = system: receptor tyrosine kinase group derived from a cell membrane of MDA-MB453; assay: activity of receptor tyrosine kinase group, sample for reaction MB453 (ELISA, GST-poly(Glu, Tyr) substrate); type: biochemical; details: Example 1, FIG. 3, treating solution containing 400 μM inhibitor, versus sample not treated = 100%
Method: as §1, with “Hela is a cultured cell derived from a uterine cervical cancer, and a sample for reaction prepared from this cell is designated sample for reaction Hela. HT29 is a cultured cell derived from a large intestine cancer, and a sample for reaction prepared from this cell is designated sample for reaction HT29.” left out

MDA-MB468 tumor = assay: proliferation of tumor cell in a mouse body (tumor volume); type: in vivo; details: Comparative Example 2, FIG. 5; BALB/c nu/nu mouse with MDA-MB468 tumor; 30 mg/kg/day injected for 7 days; compared with DMSO
Method: MDA-MB468 used in Example 1 was cultured in a culturing solution (DMEM-F12 (Sigma) containing 10% FBS (Hyclone)) so that it became 60% confluent in a 225 cm^2 flask. The resulting cultured cells were suspended to about 1×10^7 in 100 μl of DMEM-F12, to prepare a MDA-MB468 cell solution.
A fat pad of a 10-week old female mouse (BALB/c nu/nu) was injected with 100 μl of the MDA-MB468 cell solution. After 14 days, it was confirmed that a tumor became large in a mouse body. Like this, a tumor was formed in three mice bodies.
Fourteen days after injection with the MDA-MB468 cell solution, a mouse in which a tumor had been generated was injected with an inhibitor solution. Specifically, AG1478 used in Example 1 was dissolved in 100 μl of dimethyl sulfoxide (DMSO, Sigma) to prepare an inhibitor solution 1. And, the inhibitor solution 1 was injected into a mouse to a dose of the inhibitor of 30 mg/kg/day. […]
The day when the mouse was first injected with an inhibitor solution was regarded as the first day after injection. And, on the first day, the third day, the fifth day, and the eighth day after injection, a volume of a tumor in a mouse body was measured. As a volume of a tumor, a long diameter and a short diameter of a tumor were measured, and a volume was calculated from a long diameter and a short diameter on the assumption that a shape of a tumor was an elliptic sphere.

[3] = system: receptor tyrosine kinase group derived from a cell membrane of HT29; assay: activity of receptor tyrosine kinase group, sample for reaction HT29 (ELISA, GST-poly(Glu, Tyr) substrate); type: biochemical; details: Example 1, FIG. 3, treating solution containing 400 μM inhibitor, versus sample not treated = 100%
Method: as §1, with “Hela is a cultured cell derived from a uterine cervical cancer, and a sample for reaction prepared from this cell is designated sample for reaction Hela. HT29 is a cultured cell derived from a large intestine cancer, and a sample for reaction prepared from this cell is designated sample for reaction HT29.” left out

[4] = system: receptor tyrosine kinase group derived from a cell membrane of SKBr3; assay: activity of receptor tyrosine kinase group, sample for reaction SKBr3 (ELISA, GST-poly(Glu, Tyr) substrate); type: biochemical; details: Example 1, FIG. 3, treating solution containing 400 μM inhibitor, versus sample not treated = 100%
Method: as §1, with “Hela is a cultured cell derived from a uterine cervical cancer, and a sample for reaction prepared from this cell is designated sample for reaction Hela. HT29 is a cultured cell derived from a large intestine cancer, and a sample for reaction prepared from this cell is designated sample for reaction HT29.” left out

[5] = Comparative Example 1, FIG. 4, final concentration 1 × 10^−6 M (Table 1)

Compound | effect of inhibiting the activity of a receptor tyrosine kinase group, inhibitor combined with 4557W [1] | effect of inhibiting the activity of a receptor tyrosine kinase group, inhibitor alone [1] | inhibition of proliferation of a tumor cell in a mouse body (change in volume of tumor) (MDA-MB468 tumor) | inhibition of the activity of the receptor tyrosine kinase group [1] | inhibition of proliferation (MDA-MB468; [5]) | further results
COc1cc2ncnc(N3CCN(C(=O)Nc4ccc(Oc5ccccc5)cc4)CC3)c2cc1OC | high activity inhibiting effect | little effect | – | – | – | –
CCCNC(=O)Nc1ccc(Oc2ncnc3cc(OC)c(OC)cc23)cc1Cl | high activity inhibiting effect | little effect | – | – | – | –
COc1cc2ncnc(Nc3ccc(OCc4ccccc4)cc3)c2cc1OC [4557W] | – | highest activity inhibiting effect | recognized | inhibited | – | inhibition of proliferation (MDA-MB468; Comparative Example 1, FIG. 4, final concentration 1 × 10^−5 M (Table 1)): recognized; inhibition of proliferation (SKBr3): recognized; inhibition of proliferation (MDA-MB453): recognized; inhibition of proliferation (HT29): recognized; inhibition of the activity of the receptor tyrosine kinase group [2]: inhibited; inhibition of the activity of the receptor tyrosine kinase group [3]: inhibited; inhibition of the activity of the receptor tyrosine kinase group [4]: inhibited
COc1cc2ncnc(Nc3cccc(Cl)c3)c2cc1OC [AG1478] | – | – | recognized | inhibited | recognized | –
COc1cc2ncnc(Nc3cccc(Br)c3)c2cc1OC [PD153035] | – | – | – | inhibited | recognized | –
